Patent US8067590B2, “Pyridone derivates with MCH antagonistic activity and medicaments comprising these compounds” (Boehringer Ingelheim International GmbH, priority 2006, dated 2011)

Legend:
hMCH-1R = target: T1, hMCH-1R (Homo sapiens, UniProt Q99705); test: MCH-1 receptor binding test (125I-MCH binding to membranes of hMCH-1R transfected CHO/Galpha16 cells)
T1 construct: expressed in transfected cells; host or cells: CHO/Galpha16 cells (membranes)
Description: Membranes from CHO/Galpha16 cells stably transfected with human hMCH-1R are resuspended using a syringe (needle 0.6×25 mm) and diluted in test buffer (50 mM HEPES, 10 mM MgCl2, 2 mM EGTA, pH 7.00; 0.1% bovine serum albumin (protease-free), 0.021% bacitracin, 1 μg/ml aprotinin, 1 μg/ml leupeptin and 1 μM phosphoramidone) to a concentration of 5 to 15 μg/ml.
After the incubation the reaction is filtered using a cell harvester through 0.5% PEI treated fibreglass filters (GF/B, Unifilter Packard). The membranebound radioactivity retained on the filter is then determined after the addition of scintillator substance (Packard Microscint 20) in a measuring device (TopCount of Packard). The non-specific binding is defined as bound radioactivity in the presence of 1 micromolar MCH during the incubation period.
The analysis of the concentration binding curve is carried out on the assumption of one receptor binding site.

MCH-1R [1] = target: T2, MCH-1R (Rattus norvegicus, UniProt P97639); set-up: host or cells: whole animals (in vivo); settings: animals treated with the antagonist; cited from earlier work
T2 sequence (P97639 whole entry): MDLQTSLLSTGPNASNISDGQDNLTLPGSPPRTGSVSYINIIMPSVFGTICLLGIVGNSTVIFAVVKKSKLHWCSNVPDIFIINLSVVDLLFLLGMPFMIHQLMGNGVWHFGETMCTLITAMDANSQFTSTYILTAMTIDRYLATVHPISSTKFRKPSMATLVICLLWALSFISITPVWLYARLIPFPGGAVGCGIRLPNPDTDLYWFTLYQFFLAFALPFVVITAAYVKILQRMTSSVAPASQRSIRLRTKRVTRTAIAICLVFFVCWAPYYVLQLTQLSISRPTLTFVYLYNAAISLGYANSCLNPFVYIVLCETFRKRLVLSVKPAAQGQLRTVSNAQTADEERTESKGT

MCH-1R [2] = target: T2, MCH-1R; set-up: host or cells: rats (in vivo); settings: rats; cited from earlier work

T1 sequence (Q99705 whole entry): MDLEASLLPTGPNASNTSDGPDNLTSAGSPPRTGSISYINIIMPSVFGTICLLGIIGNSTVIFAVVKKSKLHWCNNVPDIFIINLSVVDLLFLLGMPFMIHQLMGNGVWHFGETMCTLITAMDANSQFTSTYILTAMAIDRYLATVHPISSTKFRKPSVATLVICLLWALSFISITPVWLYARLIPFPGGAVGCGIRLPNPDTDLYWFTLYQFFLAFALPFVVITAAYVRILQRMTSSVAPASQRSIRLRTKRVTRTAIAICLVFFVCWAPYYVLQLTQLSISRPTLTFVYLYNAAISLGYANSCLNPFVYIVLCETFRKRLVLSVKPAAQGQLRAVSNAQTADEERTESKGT

| Compound | IC50 (hMCH-1R) | further results |
| --- | --- | --- |
| O=c1cc(OCc2ccco2)ccn1CCc1ccc(CN2CCCC2)cc1 [Example 6.1, 4-(Furan-2-ylmethoxy)-1-[2-(4-pyrrolidin-1-ylmethyl-phenyl)-ethyl]-1H-pyridin-2-one] | 13 nM | – |
| CN1CCc2sc(C(=O)Cn3ncc(OCc4ccccc4)cc3=O)cc2C1 [Example 44.2, 5-Benzyloxy-2-[2-(5-methyl-4,5,6,7-tetrahydro-thieno[3,2-c]pyridin-2-yl)-2-oxo-ethyl]-2H-pyridazin-3-one] | 20 nM | – |
| CC(c1ccc(C(=O)Cn2ncc(OCc3ccccc3)cc2=O)cc1)N1CCN(C)CC1 (centres unmarked) [Example 47.5] | 27 nM | – |
| CN1CCc2ccc(C(=O)Cn3ncc(OCc4ccccc4)cc3=O)cc2C1 [Example 42.1, 5-Benzyloxy-2-[2-(2-methyl-1,2,3,4-tetrahydro-isoquinolin-7-yl)-2-oxo-ethyl]-2H-pyridazin-3-one] | 14 nM | – |
| CN1Cc2ccc(C(=O)Cn3ccc(OCc4ccccc4)cc3=O)cc2C1 [Example 37.2, 4-Benzyloxy-1-[2-(2-methyl-2,3-dihydro-1H-isoindol-5-yl)-2-oxo-ethyl]-1H-pyridin-2-one] | 33 nM | – |
| O=c1cc(OCc2ccccc2)ccn1CCc1ccc2c(c1)CCNC2 [Example 27.2, 4-Benzyloxy-1-[2-(1,2,3,4-tetrahydro-isoquinolin-6-yl)-ethyl]-1H-pyridin-2-one] | 8 nM | – |
| O=C(Cn1ccc(OCc2ccccc2)cc1=O)c1ccc(CN2CC(O)C2)cc1 [Example 29.13] | 18 nM | – |
| O=C(Cn1ncc(OCc2ccccc2)cc1=O)c1ccc2c(c1)CNCC2 [Example 41.1, 5-Benzyloxy-2-[2-oxo-2-(1,2,3,4-tetrahydro-isoquinolin-7-yl)-ethyl]-2H-pyridazin-3-one] | 17 nM | – |
| O=C(Cn1ncc(OCc2ccccc2)cc1=O)c1ccc(CN2CCC(O)CC2)cc1 [Example 32.2] | 12 nM | – |
| O=c1cc(OCc2ccccc2)ccn1CCc1ccc2c(c1)CCNCC2 [Example 23.2, 4-Benzyloxy-1-[2-(2,3,4,5-tetrahydro-1H-3-benzazepin-7-yl)-ethyl]-1H-pyridin-2-one] | 7 nM | – |
| O=c1cc(OCc2ccccc2)ccn1CCc1ccc(CN2CCCC2)s1 [Example 28.1, 4-Benzyloxy-1-[2-(5-pyrrolidin-1-ylmethyl-thiophen-2-yl)-ethyl]-1H-pyridin-2-one] | 26 nM | – |
| CN1CCc2cc(C(=O)Cn3ccc(OCc4ccccc4)cc3=O)ccc2C1 [Example 46.2, 4-Benzyloxy-1-[2-(2-methyl-1,2,3,4-tetrahydro-isoquinolin-6-yl)-2-oxo-ethyl]-1H-pyridin-2-one] | 21 nM | – |
| O=C(Cn1cnc(OCc2ccccc2)cc1=O)c1ccc(CN2CCCCC2)cc1 [Example 34.3] | 16 nM | – |
| O=C(Cn1ncc(OCc2ccccc2)cc1=O)c1ccc(CNCC2CC2)cc1 [Example 32.8] | 6 nM | – |
| O=C(Cn1ccc(OCc2ccccc2)cc1=O)c1ccc(CN2CC[C@@H](O)C2)cc1 [Example 29.11] | 14 nM | – |
| COCC1=C(C(=O)OC)[C@H](c2ccc(F)c(F)c2)N(C(=O)NCCCN2CCC(c3cccc(NC(C)=O)c3)CC2)C(=O)N1 [SNAP-7941] | – | body weight effect in long term trials (MCH-1R [1]): lose significant amounts of weight; effects in behavioural experiments (MCH-1R [2]): anxiolytic and antidepressant effects |
| O=c1cc(OCc2ccccc2)cnn1CCc1ccc(CN2CCCC2)cc1 [Example 21.2] | 3 nM | – |

The next lines start with results.

| IC50 (hMCH-1R) | Compound | further results |
| --- | --- | --- |
| 51 nM | O=C(Cn1ccc(OCc2ccccc2)cc1=O)c1ccc2c(c1)CCN(C(=O)C(F)(F)F)CC2 [Example 22.1, 4-Benzyloxy-1-{2-oxo-2-[3-(2,2,2-trifluoro-acetyl)-2,3,4,5-tetrahydro-1H-3-benzazepin-7-yl]-ethyl}-1H-pyridin-2-one] | – |
| 23 nM | CN1CCN(Cc2ccc(C(=O)Cn3ncc(OCc4ccccc4)cc3=O)cc2)CC1 [Example 32.10] | – |
| 8 nM | CC(=O)NC1CCN(Cc2ccc(CCn3ccc(OCc4ccsc4)cc3=O)cc2)CC1 [Example 4.2, N-[1-(4-{2-[2-Oxo-4-(thiophen-3-ylmethoxy)-2H-pyridin-1-yl]-ethyl}-benzyl)-piperidin-4-yl]-acetamide] | – |
| 16 nM | O=C(Cn1ccc(OCc2ccccc2)cc1=O)c1ccc(CN2CCC(O)CC2)cc1 [Example 29.3, 4-Benzyloxy-1-{2-[4-(4-hydroxy-piperidin-1-ylmethyl)-phenyl]-2-oxo-ethyl}-1H-pyridin-2-one] | – |
| 16 nM | CC1(O)CCN(Cc2ccc(C(=O)Cn3ccc(OCc4ccccc4)cc3=O)cc2)CC1 [Example 29.4] | – |
| 19 nM | O=C(Cn1ncc(OCc2ccc(Cl)cn2)cc1=O)c1ccc(CN2CCCC2)cc1 [Example 33.8] | – |
| 34 nM | O=c1cc(OCc2ccc(Br)cn2)ccn1CC(O)c1ccc2c(c1)CNCC2 (centres unmarked) [Example 39.1, 4-(5-Bromo-pyridin-2-ylmethoxy)-1-[2-hydroxy-2-(1,2,3,4-tetrahydro-isoquinolin-7-yl)-ethyl]-1H-pyridin-2-one] | – |
| 9 nM | CC1(O)CCN(Cc2ccc(C(=O)Cn3ncc(OCc4ccccc4)cc3=O)cc2)CC1 [Example 32.3] | – |
